Several values for one entry are separate records, joined by “and”; a condition that tells them apart may be missing. Equal values may be shown once. Read-outs that look alike come from different tables or passages of the source.
Key:
[1] = 3-month dose-ranging study: plasma pharmacokinetics (Cmax,ss); format: in vivo, human; settings: Day 91, 85 mg qd.
[2] = tested on: Aβ40; assay: Aβ40 in C57BL/6 mouse brain after chronic dosing (MSD assay); format: in vivo; settings: for Average Aβ40 brain: mean ± SD, n = 4
Procedure: (§1) Frozen mouse forebrains were weighed and homogenized in 9 volumes (w/v) of ice-cold TBS-Complete (20 mM Tris-HCl pH 7.4, 137 mM NaCl, 1× Complete [Protease Inhibitor Cocktail Tablets: 1 836 145, Roche Diagnostics GmbH, Penzberg, Germany]) by sonication (90% duty cycle, output control 5, 40-55 pulses, [Sonifier 450, Branson]). After homogenization several 50 μl aliquots were prepared for analysis and were stored at −80° C.
Human Aβ peptide (1-40) trifluoroacetate salt (H 1194.1000, Bachem, Bubendorf, Switzerland) was used as calibration curve for Aβ1-40. It was solubilized in water-free DMSO (41647, Fluka) at a concentration of 1 mg/ml for approximately 30 min at room temperature (RT) and then visually checked for complete solubilization.
Endogenous Aβ40 in mice was determined with the Meso Scale Discovery (MSD) 96-well MULTI-ARRAY human/rodent (4G8) Aβ40 Ultrasensitive Assay (#K110FTE-3, Meso Scale Discovery, Gaithersburg, USA). The assay was performed according to the manufacturer's instructions except for the calibration curve and the sample preparations. TritonX-100 (TX-100) soluble Aβ40 was extracted from forebrain with 1% TX-100 using a 50 μl aliquot of each 1:10 forebrain homogenate, mixed with 50 μl 2% TX-100 in TBS complete (20 mM Tris-HCl pH 7.4, 137 mM NaCl, 1× Complete [Protease Inhibitor Cocktail Tablets: 1 836 145, Roche Diagnostics GmbH, Penzberg Germany]) to reach a final concentration of 1% TX-100 and a 1:20 forebrain dilution. The samples were incubated for 15 min on ice and vortexed every 5 min. The samples were ultra-centrifuged (100000×g, 4° C., 15 min) and 50 μl of the clear supernatants were transferred to fresh tubes. For the Aβ40 assay the supernatants were further diluted 1:5 in 3% Blocker A solution (from kit) to a final forebrain dilution of 1:100 and applied to the plate.
The calibration curve was prepared in a corresponding dilution of 1% Blocker A solution spiked with synthetic Aβ1-40 peptide (1.56-100 pg/ml) except for non-transgenic mouse brain samples: In this case, the calibration curve was prepared in a correspondingly diluted APP knockout mouse forebrain spiked with synthetic Aβ1-40 peptide (1.56-100 pg/ml). For all samples and standards 25 μl were applied per well. For each determination duplicate wells were performed. The mean values from the duplicate wells were used for calculations.
At the last day of the study, groups of n=4 mice were sacrificed 4 hours and 24 hours after having received the last dose. Forebrain was separated, and analyzed for β-amyloid peptide 1-40. Concentrations of Aβ40 for the vehicle and treatment groups are summarized in Table 6 and visualised in FIG. 2. The percent of reduction versus the corresponding vehicle treated group was calculated.

[3] = tested on: total Aβ (40+42); assay: Formic acid soluble total Aβ (40+42) and Aβ42/40 ratio in APP23 mouse forebrain; format: in vivo
Procedure: as §1
Fifty microliter of forebrain homogenate was mixed with 116.6 μl 100% formic acid, resulting in a final formic acid concentration of 70%. Samples were stored on ice and vortexed every 5 minutes. For neutralization, 50 μl of the mixture were pipetted into a new tube, and 950 μl of 1 M Tris base, containing 1× Complete Protease inhibitor, was added. Tubes were stored at room temperature overnight and then centrifuged for 15 minutes at 14000 rpm in an Eppendorf Microzentrifuge at 4° C. From the top layer, 100 μl are removed and mixed with 100 μl of 3% Blocker A solution (part of the MesoScale assay kit). This sample was either directly applied to the assay plate (dilution 1:1332) or further diluted in 1% Blocker A solution.

[4] = in vivo; for AUCblood (AUC0-24 h): po
Text: Blood samples were used to analyze whole-blood compound levels and were obtained either from tail-vein during the in-life part into EDTA tubes (CB300, Sarstedt, Germany) or from trunk blood at the day of necropsy into EDTA Eppendorf tubes (Milian S A, CatNoTOM-14, Fisher Scientific, Wohlen, Switzerland), or into serum tubes (CB300Z, Sarstedt, Nümbrecht, Germany).
Brain was removed immediately after decapitation, rinsed with saline and sectioned sagitally down the midline. The left half of the cerebellum was used to analyze compound level and was placed into a glass tube (Chromacol, 125×5-SV T051, Welwyn Garden City, United Kingdom), weighed and frozen in dry-ice, the left half of the forebrain (without olfactory bulb) was used for Aβ analysis, and was frozen on a metal plate on dry ice and placed into protein Lo-bind tube (003 0108.116, Eppendorf, Hamburg, Germany).
Ventral and dorsal skin were taken to analyze compound level, weighed and frozen on dry-ice.
Brain samples were mixed with 2 volumes of KH2PO4 buffer and homogenized using the Covaris® device. Skin samples were mixed with approx. 6-fold volumes of methanol/water and homogenized using a Precellys tube. Either 30 μL of blood, brain or skin homogenate were spiked with a structurally related internal standard and subsequently mixed with an at least 6-fold excess volume acetonitrile for protein precipitation. The supernatant was injected directly into the LC/MS/MS system for analysis.
For tissue exposure, only data at 4 and 24 h were available.

[5] = tested on: Aβ40; assay: 3-month dose-ranging study: Aβ40 in CSF; format: in vivo, human; settings: for Aβ40 % change from baseline, Mean (SD) / Aβ40 % change from baseline, Median: CSF, 3 months
Text: This study is listed in ClinicalTrials.gov under the NCT02576639 Identifier code.
The primary purpose of this study was to expand on previous safety and tolerability data obtained over 2-week and 4-week duration in the first in human study and thereby allow initiation of future long-term efficacy trials in subjects at risk of AD. In addition, data relevant for Pharmacokinetic/Pharmacodynamic modeling was obtained in order to support dose selection decisions for future efficacy studies.
In the completed first-in-human and 3-month dose-ranging safety and tolerability clinical studies described in Examples 5 and 6, Aβ concentrations in CSF were obtained by means of lumbar punctures before the first dose (baseline) and respectively after 2 weeks and 3 months of multiple dosing. ApoE4 genotype also was obtained in the subjects who consented. The percent change from baseline in Aβ40 and Aβ42 concentrations was calculated in subjects who took the study treatment and had no major protocol deviation with potential impact on the evaluation of the pharmacodynamic effect. Tables 18 to 21 below provide summary statistics of the percent change from baseline by treatment group and ApoE genotype (E4 heterozygotes versus E4 non-carriers). Only one subject with CSF data was E4 homozygote (from the 3-month dose-ranging safety and tolerability study).

C[C@@]1(c2nc(NC(=O)c3ncc(C(F)(F)F)cc3Cl)ccc2F)CO[C@@](C)(C(F)(F)F)C(N)=N1 [Compound 1, N-(6-((3R,6R)-5-amino-3,6-dimethyl-6-(trifluoromethyl)-3,6-dihydro-2H-1,4-oxazin-3-yl)-5-fluoropyridin-2-yl)-3-chloro-5-(trifluoromethyl)picolinamide]
Cmax, ss, Mean [1]: 602 ng/mL
Average Aβ40 brain ([2]; C57BL/6, 8 μmol/kg q.d. 8 weeks, 4 h after last dose): 432.8 ± 140.5 pg/g
Average Aβ40 brain ([2]; C57BL/6, 8 μmol/kg q.d. 8 weeks, 24 h after last dose): 1098.6 ± 148.7 pg/g
% reduction vs vehicle (brain Aβ40) ([2]; C57BL/6, 8 μmol/kg, 4 h after last dose): 67.1%
% reduction vs vehicle (brain Aβ40) ([2]; C57BL/6, 8 μmol/kg, 24 h after last dose): 25% and 25.3%
Mini AU EC (brain Aβ40) ([2]; C57BL/6, 8 μmol/kg, after last dose): 46.2%
Average Aβ40 brain ([2]; C57BL/6, 50 μmol/kg q.d. 8 weeks, 4 h after last dose): 93.4 ± 83.7 pg/g
Average Aβ40 brain ([2]; C57BL/6, 50 μmol/kg q.d. 8 weeks, 24 h after last dose): 233.8 ± 36.5 pg/g
% reduction vs vehicle (brain Aβ40) ([2]; C57BL/6, 50 μmol/kg, 4 h after last dose): 92.9%
% reduction vs vehicle (brain Aβ40) ([2]; C57BL/6, 50 μmol/kg, 24 h after last dose): 84.1%
Mini AU EC (brain Aβ40) ([2]; C57BL/6, 50 μmol/kg, after last dose): 88.5%
Aβ40 reduction over the whole 24 hour time course ([2]; C57BL/6, 50 μmoles/kg, after last dose): 80-90%
Formic acid soluble Total Aβ change vs vehicle ([3]; APP23, 0.03 g/kg vs vehicle): −17.9%
Formic acid soluble Total Aβ change vs vehicle ([3]; APP23, 0.3 g/kg vs vehicle): −79.8%
reduction of deposited Aβ40 and Aβ42 vs vehicle ([3]; APP23, high dose): around 80%
reduction of deposited Aβ40 and Aβ42 compared to vehicles ([3]; APP23, low dose): around 17%
AUCbrain (AUC0-24 h) ([4]; C57BL/6, mouse, 8 umol/kg): 11.61 µmol·h/kg
AUCbrain (AUC0-24 h) ([4]; C57BL/6, mouse, 50 umol/kg): 88.93 µmol·h/kg
reduction of blood exposure, last day vs beginning of experiment ([4]; C57BL/6, mouse, 8 weeks): around 35%
AUCblood (AUC0-24 h) ([4]; C57BL/6, mouse, 8 umol/kg): 3.49 µM·h
AUCblood (AUC0-24 h) ([4]; C57BL/6, mouse, 50 umol/kg): 18.53 µM·h
rel. AUCdorsal skin ([4]; mouse): 12.6
rel. AUCventral skin ([4]; mouse): 16.8
AUCdorsal skin (AUC0-24 h) ([4]; mouse, 8 umol/kg): 54.3 µmol·h/kg
AUCventral skin (AUC0-24 h) ([4]; mouse, 8 umol/kg): 78.29 µmol·h/kg
AUCdorsal skin (AUC0-24 h) ([4]; mouse, 50 umol/kg): 271.6 µmol·h/kg
AUCventral skin (AUC0-24 h) ([4]; mouse, 50 umol/kg): 308.7 µmol·h/kg
Aβ40 % change from baseline, Mean (SD) ([5]; 2 mg, E4 heterozygotes): −21 (11) %
Aβ40 % change from baseline, Median ([5]; 2 mg, E4 heterozygotes): −18%
Aβ40 % change from baseline, Mean (SD) ([5]; 2 mg, E4 non-carriers): −24 (9) %
Aβ40 % change from baseline, Median ([5]; 2 mg, E4 non-carriers): −22%
Aβ40 % change from baseline, Mean (SD) ([5]; 10 mg, E4 heterozygotes): −67 (7) %
Aβ40 % change from baseline, Median ([5]; 10 mg, E4 heterozygotes): −64%
Aβ40 % change from baseline, Mean (SD) ([5]; 10 mg, E4 non-carriers): −64 (6) %
Aβ40 % change from baseline, Median ([5]; 10 mg, E4 non-carriers): −65%
Aβ40 % change from baseline, Mean (SD) ([5]; 35 mg, E4 heterozygotes): −84 (3) %
Aβ40 % change from baseline, Median ([5]; 35 mg, E4 heterozygotes): −85%
Aβ40 % change from baseline, Mean (SD) ([5]; 35 mg, E4 non-carriers): −82 (5) %
Aβ40 % change from baseline, Median ([5]; 35 mg, E4 non-carriers): −83%
Aβ40 % change from baseline, Mean (SD) ([5]; 85 mg, E4 heterozygotes): −91 (0) %
Aβ40 % change from baseline, Median ([5]; 85 mg, E4 heterozygotes): −91%
Aβ40 % change from baseline, Mean (SD) ([5]; 85 mg, E4 non-carriers): −91 (2) %
Aβ40 % change from baseline, Median ([5]; 85 mg, E4 non-carriers): −90%
difference in CSF Aβ40 and Aβ42 response between ApoE4 carriers and non-carriers ([5]; first-in-human (2 weeks) and 3-month studies): no difference in CSF Aβ40 and Aβ42 response to treatment
PD steady-state (Aβ lowering) reached after ([5]; healthy elderly subjects, once-daily dosing): 2-3 weeks
Aβ40 in CSF percent change from baseline, Difference (90% CI) Cmpd 1-Placebo ([5]; month 3, 2 mg QD): −19.87 (−23.09, −16.65) %
Aβ40 in CSF percent change from baseline, LSmean (SE) ([5]; month 3, 2 mg QD): −22.66 (1.355) %
Aβ40 in CSF percent change from baseline, Difference (90% CI) Cmpd 1-Placebo ([5]; month 3, 10 mg QD): −60.18 (−63.43, −56.92) %
Aβ40 in CSF percent change from baseline, LSmean (SE) ([5]; month 3, 10 mg QD): −62.96 (1.388) %
Aβ40 in CSF percent change from baseline, Difference (90% CI) Cmpd 1-Placebo ([5]; month 3, 35 mg QD): −80.41 (−83.59, −77.22) %
Aβ40 in CSF percent change from baseline, LSmean (SE) ([5]; month 3, 35 mg QD): −83.19 (1.325) %
Aβ40 in CSF percent change from baseline, Difference (90% CI) Cmpd 1-Placebo ([5]; month 3, 85 mg QD): −87.62 (−90.93, −84.30) %
Aβ40 in CSF percent change from baseline, LSmean (SE) ([5]; month 3, 85 mg QD): −90.40 (1.429) %

From patent US20200345746A1, “Oxazine Derivative for Use in the Prevention of Alzheimer's Disease in at Risk Patents” (Novartis AG, priority 2016, published 2020)
